Results on 10 compounds are retold here after patent publication US20220162215A1, “COMPOSITIONS AND METHODS OF USING THE SAME FOR TREATMENT OF NEURODEGENERATIVE AND MITOCHONDRIAL DISEASE” (MITOKININ, INC., priority 2019, published 2022).

Like-named read-outs stand apart in the source and are kept apart here.

Data set [1] is described as follows: Visual inspection of crystallization. The data set is classed as physicochemical. To be noted: Tables 5A-5D. The arrangement: key: 1: yes crystals; 0: no crystals.
Experimental: (§1) Briefly, the Hela MKYP (Mito-Keima/YFP-Parkin) cells were seeded at 10K cells/well. EP/MTK compounds were added at seeding (cells were still in suspension). The cells were incubated with the EP/MTK compounds for 16 hours, then 1 μM FCCP/oligomycin was added for 6 hours. Prior to harvesting, cells were scored by eye under 20× magnification for the presence or absence of crystalline or aggregated compound, or round cells.
Data set [2] deals with HeLa MKYP cells. In words: Human mitophagy assay (HeLa MKYP, mtKeima FACS, FCCP/oligomycin). Format: cell-based. To be noted: for EC50: Homo sapiens, HeLa. As for the experimental part:
Briefly, HeLa MKYP cells were plated at 10,000 cells/well in 96 well plates along with compounds at various concentrations. Following 16 hrs of incubation, cells were treated with 1 uM FCCP/oligomycin for 6 hours, then analyzed via FACS for the presence of mitochondria in lysosomes (as determined by an emissions spectrum shift from the pH-sensitive mtKeima tag). Examples are shown in FIG. 1 through FIG. 13 below.

The test system of data set [3] is Hela MKYP (Mito-Keima/YFP-Parkin) cells. The experiment in a line: Inspection of round cells. To be noted: Tables 6A-6D.
Experimental: as §1
In data set [4] the test system is HeLa MKYP cells. The experiment in a line: Toxicity / cell death measured by DAPI staining (take-up). The data set is classed as cell-based. The conditions noted are these: 50 μM. On the procedure:
H2O2 treatment was performed as a control for cell death as measured by DAPI staining.
Briefly, HeLa MKYP cells were plated at 10,000 cells/well in 96 well plates along with compounds at various concentrations. Following 16 hrs of incubation, cells were treated with 1 uM FCCP/oligomycin for 6 hours, then analyzed via FACS for the presence of mitochondria in lysosomes (as determined by an emissions spectrum shift from the pH-sensitive mtKeima tag).

Where [5] appears, read: Table 3, read-out: Potency at 1 μM F/O toxin* (EC50 of mitophagy activation).
Setting [6] is: Table 3 Supplement A, as measured in Table 3, read-out: Potency (EC50 Max Mitophagy) (μM)*.

As for `C[C@@H](Nc1ncnc2[nH]c(C(F)(F)F)cc12)c1ccccc1` [Compound 38], the “Visual inspection of crystallization” value in data set [1] (1.6 μM), in data set [1] (3.1 μM), in data set [1] (6.3 μM), in data set [1] (12.5 μM), in data set [1] (25.0 μM) and in data set [1] (50.0 μM) was 0 in each case. Further, the figures for the EC50 in data set [2] (setting [5]) and in data set [2] (setting [6]) were 3.1 µM and 3.62 µM, respectively. In addition, the “Inspection of round cells” value in data set [3] (1.6 μM) came to 0; in data set [3] (3.1 μM) it was 0; in data set [3] (6.3 μM), 0; in data set [3] (12.5 μM), 0; in data set [3] (25.0 μM), 0; in data set [3] (50.0 μM) it was 1. Besides, in data set [4] (Table 3), the “Toxicity (% positive for DAPI takeup @ 50 μM)” value amounted to 63.7%. The “Toxicity (% positive for DAPI take-up at 50 μM)*” value in data set [4] (Table 3 Supplement A) came out at 52.58%.

For the compound `CCC(Nc1ncnc2[nH]c(C(F)(F)F)cc12)c1cncnc1` (centres unmarked) [Compound 43], the “Visual inspection of crystallization” value in data set [1] (1.6 μM), in data set [1] (3.1 μM), in data set [1] (6.3 μM), in data set [1] (12.5 μM), in data set [1] (25.0 μM) and in data set [1] (50.0 μM) was 0 throughout. The EC50 in data set [2] (setting [5]) and in data set [2] (setting [6]) was 18.8 µM each time. For the same compound, the “Inspection of round cells” value in data set [3] (1.6 μM), in data set [3] (3.1 μM), in data set [3] (6.3 μM), in data set [3] (12.5 μM), in data set [3] (25.0 μM) and in data set [3] (50.0 μM) was 0 in each case. Besides, the “Toxicity (% positive for DAPI takeup @ 50 μM)” value in data set [4] (Table 3) is on record as 15.9%. In addition, the “Toxicity (% positive for DAPI take-up at 50 μM)*” value in data set [4] (Table 3 Supplement A) is 15.86%.

Turning to `C[C@H](Nc1ncnc2[nH]c(C(F)(F)F)cc12)c1cncnc1` [Compound 44], the “Visual inspection of crystallization” value in data set [1] (1.6 μM), in data set [1] (3.1 μM), in data set [1] (6.3 μM), in data set [1] (12.5 μM), in data set [1] (25.0 μM) and in data set [1] (50.0 μM) was 0 in each case. Further, the EC50 came out at 3.1 µM in data set [2] (setting [5]) and 3.15 µM in data set [2] (setting [6]). Also, the “Inspection of round cells” value in data set [3] (1.6 μM), in data set [3] (3.1 μM), in data set [3] (6.3 μM), in data set [3] (12.5 μM), in data set [3] (25.0 μM) and in data set [3] (50.0 μM) was 0 throughout. Further, the “Toxicity (% positive for DAPI take-up at 50 μM)*” value in data set [4] (human) came to 23.68%. Moreover, in data set [4] (human), the “Toxicity (% positive for DAPI takeup @ 50 μM)” value is on record as 23.7%.

Take `CN(C)C1CCC(CNc2ncnc3[nH]c(C(F)(F)F)cc23)CC1` (centres unmarked) [Compound 50]: the “Visual inspection of crystallization” value in data set [1] (1.6 μM), in data set [1] (3.1 μM), in data set [1] (6.3 μM), in data set [1] (12.5 μM), in data set [1] (25.0 μM) and in data set [1] (50.0 μM) was 0 each time. In data set [2] (setting [5]), the EC50 is above 50 µM. The “Potency (EC50 Max Mitophagy) (μM)*” value in data set [2] (Table 3 Supplement A, as measured in Table 3) is 0.01 µM. In addition, the “Inspection of round cells” value in data set [3] (1.6 μM), in data set [3] (3.1 μM), in data set [3] (6.3 μM), in data set [3] (12.5 μM), in data set [3] (25.0 μM) and in data set [3] (50.0 μM) was 0 throughout. In data set [4] (Table 3), the “Toxicity (% positive for DAPI takeup @ 50 μM)” value is listed as 5.2%. In addition, the “Toxicity (% positive for DAPI take-up at 50 μM)*” value in data set [4] (Table 3 Supplement A) was 5.16%.

As for `C[C@@H](Nc1ncnc2[nH]cnc12)c1ccccc1` [Compound 52], the “Visual inspection of crystallization” value in data set [1] (1.6 μM), in data set [1] (3.1 μM), in data set [1] (6.3 μM), in data set [1] (12.5 μM), in data set [1] (25.0 μM) and in data set [1] (50.0 μM) was 0 in each case. Moreover, the EC50 in data set [2] (setting [5]) is above 50 µM; in data set [2] (setting [6]), above 25 µM. The “Inspection of round cells” value in data set [3] (1.6 μM), in data set [3] (3.1 μM), in data set [3] (6.3 μM), in data set [3] (12.5 μM), in data set [3] (25.0 μM) and in data set [3] (50.0 μM) was 0 throughout. For the same compound, the “Toxicity (% positive for DAPI takeup @ 50 μM)” value in data set [4] (Table 3) was determined as 10.1%. Also, in data set [4] (Table 3 Supplement A, listed as EP-0036297), the “Toxicity (% positive for DAPI take-up at 50 μM)*” value worked out at 10.14%.

In the case of `COc1ncc(CNc2ncnc3[nH]c(C(F)(F)F)cc23)cn1` [Compound 66], the “Visual inspection of crystallization” value in data set [1] (1.6 μM) was determined as 0; in data set [1] (3.1 μM) it was 0; in data set [1] (6.3 μM) it was 0; in data set [1] (12.5 μM) it was 0; in data set [1] (25.0 μM), 1; in data set [1] (50.0 μM), 1. For the same compound, the EC50 in data set [2] (setting [5]) and in data set [2] (setting [6]) was 10.6 µM throughout. Also, the “Inspection of round cells” value in data set [3] (1.6 μM) is listed as 0; in data set [3] (3.1 μM) it was 0; in data set [3] (6.3 μM), 0; in data set [3] (12.5 μM) it was 0; in data set [3] (25.0 μM), 1; in data set [3] (50.0 μM), 1. In addition, the “Toxicity (% positive for DAPI takeup @ 50 μM)” value in data set [4] (Table 3) amounted to 5.8%. In data set [4] (Table 3 Supplement A), the “Toxicity (% positive for DAPI take-up at 50 μM)*” value was determined as 5.76%.

For the compound `c1ncc(CNc2ncnc3[nH]cnc23)cn1` [Compound 67], the “Visual inspection of crystallization” value in data set [1] (1.6 μM), in data set [1] (3.1 μM), in data set [1] (6.3 μM), in data set [1] (12.5 μM), in data set [1] (25.0 μM) and in data set [1] (50.0 μM) was 0 in each case. The EC50 was determined as 4.4 µM in data set [2] (setting [5]) and 4.42 µM in data set [2] (setting [6]). The “Inspection of round cells” value in data set [3] (1.6 μM), in data set [3] (3.1 μM), in data set [3] (6.3 μM), in data set [3] (12.5 μM), in data set [3] (25.0 μM) and in data set [3] (50.0 μM) was 0 each time. Also, the “Toxicity (% positive for DAPI take-up at 50 μM)*” value in data set [4] (human) turned out to be 5.33%. Besides, in data set [4] (human), the “Toxicity (% positive for DAPI takeup @ 50 μM)” value is reported as 5.3%.

With `CCCCNc1ncnc2[nH]c(C(F)(F)F)c(C)c12` [Compound 68], the “Visual inspection of crystallization” value in data set [1] (1.6 μM), in data set [1] (3.1 μM), in data set [1] (6.3 μM), in data set [1] (12.5 μM), in data set [1] (25.0 μM) and in data set [1] (50.0 μM) was 0 throughout. In addition, the EC50 in data set [2] (setting [5]) was above 50 µM; in data set [2] (setting [6]), above 25 µM. The “Inspection of round cells” value in data set [3] (1.6 μM), in data set [3] (3.1 μM), in data set [3] (6.3 μM), in data set [3] (12.5 μM), in data set [3] (25.0 μM) and in data set [3] (50.0 μM) was 0 in each case. Also, the “Toxicity (% positive for DAPI takeup @ 50 μM)” value in data set [4] (Table 3) is given as 11.9%. Moreover, in data set [4] (Table 3 Supplement A), the “Toxicity (% positive for DAPI take-up at 50 μM)*” value came out at 11.94%.

As to `CCCCNc1ncnc2c1cc(C(F)(F)F)n2C(C)=O` [Compound 69], the “Visual inspection of crystallization” value in data set [1] (1.6 μM), in data set [1] (3.1 μM), in data set [1] (6.3 μM), in data set [1] (12.5 μM), in data set [1] (25.0 μM) and in data set [1] (50.0 μM) was 0 throughout. The EC50 in data set [2] (setting [5]) is above 50 µM. Further, the “Inspection of round cells” value in data set [3] (1.6 μM), in data set [3] (3.1 μM), in data set [3] (6.3 μM), in data set [3] (12.5 μM), in data set [3] (25.0 μM) and in data set [3] (50.0 μM) was 0 each time. For the same compound, the “Toxicity (% positive for DAPI takeup @ 50 μM)” value in data set [4] (Table 3) worked out at 36.6%.

As to `C[C@@H](Nc1ncnc2[nH]c(C(F)(F)F)cc12)c1cncnc1` [Compound 70], the “Visual inspection of crystallization” value in data set [1] (1.6 μM), in data set [1] (3.1 μM), in data set [1] (6.3 μM), in data set [1] (12.5 μM), in data set [1] (25.0 μM) and in data set [1] (50.0 μM) was 0 each time. The EC50 in data set [2] (setting [5]) and in data set [2] (setting [6]) was 21.6 µM throughout. For the same compound, the “Inspection of round cells” value in data set [3] (1.6 μM), in data set [3] (3.1 μM), in data set [3] (6.3 μM), in data set [3] (12.5 μM), in data set [3] (25.0 μM) and in data set [3] (50.0 μM) was 0 throughout. The “Toxicity (% positive for DAPI take-up at 50 μM)*” value in data set [4] (human) is 22.95%. The “Toxicity (% positive for DAPI takeup @ 50 μM)” value in data set [4] (human) stood at 22.9%.
